Source: patent US20240293430A1, “WITHAFERIN A AND IMMUNE CHECKPOINT BLOCKER COMBINATION THERAPIES” (University of South Florida, priority 2023, published 2024)

Columns and labels:
[1] = test system: NSCLC cell lines (LLC, H1650, A549); assay: Annexin V apoptosis assay (flow cytometry); assay type: cell-based, mouse (LLC), human (H1650; details: 48 h, compared to untreated cells
Protocol: FIGS. 1A-lE depict that WFA induces ER stress-mediated apoptosis in NSCLC cell lines. (FIG. 1A) NSCLC cells were plated on 96-well plates and treated with different concentrations of WFA ([…]) in triplicates. Forty-eight hours post-treatment, cell viability was determined using Cell Titer-Glo assay. Luminescence values were normalized to control untreated cells and IC50 values are represented as the mean of two independent experiments ±SEM. (FIG. 1B) NSCLC cells were treated WFA for forty-eight hours, then collected to measure apoptotic cell death using Annexin V assay in LLC cells, H1650 cells, and A549 cells. Percentages of early (annexin*DAPI-) and late (annexin*DAPI+) apoptotic cells are represented as means of two separate experiments ±SEM and statistical significance was calculated using one-way ANOVA and a Fisher LSD post hoc test was used to compare the mean of each group to that of the control group. (FIGS. 1C-1D) WFA treated cells were collected in Trizol and total RNA was isolated to measure the levels of Bax (FIG. 1C) and Bcl2 (FIG. 1D) mRNA using qRT-PCR. PCR experiments were repeated at least twice, and one representative experiment is shown as mean±SEM of the technical replicates. […] The quantification of western blot band density was performed using Image J software v.1.54d and normalized to housekeeping control protein in LLC cells (0-actin). […]

[2] = test system: ecto-CRT in LLC, H1650 and A549 cells; assay: Ecto-CRT (cell surface calreticulin) by flow cytometry, NSCLC; assay type: cell-based, mouse (LLC), human (H1650; details: 48 h
Protocol: Cells were treated with WFA for 48 h then collected using Accutase cell detachment solution. […] (FIG. 2E) Bone marrow-derived DC were co-cultured with WFA-pretreated LLC cells (24 h) in a ratio 5:1 of DC:LLC cells for 24 h.
In vitro WFA-treated or control cells were collected using Accutase cell detachment solution and stained with FACS-diluted (PBS, 10% FBS, 2 mMEDTA) pre-titrated fluorophore conjugated or primary unconjugated antibody solutions (Table 1) for 30 min on ice in the dark. In case of fluorophore-conjugated antibodies, samples are washed and immediately acquired after adding DAPI viability dye, while samples stained with unconjugated antibodies are incubated with the proper secondary fluorophore-conjugated antibody for 30 min before washing and acquisition. For in vivo experiments, the processed tumor or spleen single cell suspensions were used for surface staining with the pre-titrated antibodies (Table 1) for 30 min on ice in the dark. To exclude the dead cells from the analysis, a fixable live/dead Zombie Aqua viability kit (Biolegend, San Diego, CA, USA) was used according to the manufacturer's protocol. Samples were then fixed using 2% PFA for 15 min then washed and stored at 4° C. before acquisition. […]

[3] = test system: PD-L1 in NRF-2 knockdown LLC or H1650 cells; assay: NRF-2 siRNA knockdown then WFA, PD-L1 by flow cytometry; assay type: cell-based, mouse (LLC), human (H1650); details: WFA 24 h after siRNA, similar to scramble controls
[4] = test system: bone marrow-derived DCs co-cultured with WFA-pretreated LLC; details: DC:LLC 5:1, 24 h co-culture, vs untreated LLC
Protocol: Cells were treated with WFA for 48 h then collected using Accutase cell detachment solution. […] (FIG. 2E) Bone marrow-derived DC were co-cultured with WFA-pretreated LLC cells (24 h) in a ratio 5:1 of DC:LLC cells for 24 h. DC activation markers (CD80, CD86, and MHC-II) were examined by flow cytometry. The means of at least 2 independent experiments ±SEM is represented, and one-way ANOVA was used to calculate statistical significance where * denotes p<0.05, ** denote p<0.01, *** denote p<0.001, and **** denote p<0.0001.
Hierarchical gating was used to identify the total cell population followed by single live cells the CD11C+DC. Out of the CD11C population, the expression of DC cell activation markers was determined based on the fluorescence minus one (FMO) controls.
Myeloid progenitor cells were isolated from the femurs of C57BL/6 mice as described previously [37]. The isolated cells were cultured in RMPI media supplemented with GMCSF and refed as necessary. On day 8, the differentiated DCs (loosely attached) were collected, counted, and added to WFA-pretreated LLCs or untreated control LLCs at a ratio of 5:1 of DC: LLC cells. […] Then the samples were acquired using a BD LSR II flow cytometer and the data were analyzed using FlowJo 8.7 software (BD, Franklin Lakes, NJ, USA).

Structure (SMILES): CC1=C(CO)C(=O)O[C@@H]([C@@H](C)[C@H]2CC[C@H]3[C@@H]4C[C@H]5O[C@]56[C@@H](O)C=CC(=O)[C@]6(C)[C@H]4CC[C@]23C)C1 [WFA, Withaferin A]
- early and late apoptotic cell populations [1]: significant increase
- ecto-CRT expression [2]: increased
- PD-L1 in NRF-2 knockdown cells [3]: still upregulated
- DC activation markers CD80, CD86, MHC-II [4]: higher levels
